Laboratory results: patent US11414436B2, “Non-coordinating anion type activators containing cation having large alkyl groups” (ExxonMobil Chemical Patents Inc., priority 2018, dated 2022)
“And” between values parts separate entries of the source, which are not always exact repeats. Identical values can stand only once.

Tests used:
[1] = Ethylene-octene copolymerization in parallel pressure reactor, non-metallocene catalyst CAT-3; details: catalyst CAT-3 20 nmol; activator 1.1 equiv; 100° C.; 135 psi; 1-octene 100 uL; TNOAL 0.5 umol
Description: (§1) Solutions of the metal complexes and activators were prepared in a drybox using toluene or methylcyclohexane. Concentrations were typically 0.2 mmol/L. Tri-n-octylaluminum (TNOAL, neat, AkzoNobel) was typically used as a scavenger. Concentration of the TNOAL solution in toluene ranged from 0.5 to 2.0 mmol/L.
(§2) Polymerizations were carried out in a parallel pressure reactor, as generally described in U.S. Pat. Nos. 6,306,658; 6,455,316; 6,489,168; WO 00/09255; and Murphy, V. et al. (2003) “A Fully Integrated High-Throughput Screening Methodology for the Discovery of New Polyolefin Catalysts: Discovery of a New Class of High Temperature Single-Site Group (IV) Copolymerization Catalysts,” J. Am. Chem. Soc., v. 125, pp. 4306-4317, each of which is fully incorporated herein by reference. […] Although the specific quantities, temperatures, solvents, reactants, reactant ratios, pressures, and other variables are frequently changed from one polymerization run to the next, the following describes a typical polymerization performed in a parallel pressure reactor.
(§3) Ethylene-Octene Copolymerization (EO).
(§4) A pre-weighed glass vial insert and disposable stirring paddle were fitted to each reaction vessel of the reactor, which contains 48 individual reaction vessels. The reactor was then closed and purged with ethylene. Each vessel was charged with enough solvent (typically isohexane) to bring the total reaction volume, including the subsequent additions, to the desired volume, typically 5 mL. 1-octene, if required, was injected into the reaction vessel and the reactor was heated to the set temperature and pressurized to the predetermined pressure of ethylene, while stirring at 800 rpm. The aluminum compound (such as tri-n-octylaluminum) in toluene was then injected as scavenger followed by addition of the activator solution (typically 1.0-1.2 molar equivalents).
(§5) The catalyst (and activator solutions for Run A) were all prepared in toluene. The catalyst solution (typically 0.020-0.080 μmol of metal complex) was injected into the reaction vessel and the polymerization was allowed to proceed until a pre-determined amount of ethylene (quench value typically 20 psi) had been used up by the reaction. Alternatively, the reaction may be allowed to proceed for a set amount of time (maximum reaction time typically 30 minutes). Ethylene was added continuously (through the use of computer controlled solenoid valves) to the autoclaves during polymerization to maintain reactor gauge pressure (P setpt, +/−2 psig) and the reactor temperature (T) was monitored and typically maintained within +/−1° C. The reaction was quenched by pressurizing the vessel with compressed air. After the reactor was vented and cooled, the glass vial insert containing the polymer product and solvent was removed from the pressure cell and the inert atmosphere glove box, and the volatile components were removed using a Genevac HT-12 centrifuge and Genevac VC3000D vacuum evaporator operating at elevated temperature and reduced pressure. The vial was then weighed to determine the yield of the polymer product. The resultant polymer was analyzed by Rapid GPC (see below) to determine the molecular weight, by FT-IR (see below) to determine percent octene incorporation, and by DSC (see below) to determine melting point (Tm).
(§6) Equivalence is determined based on the mole equivalents relative to the moles of the transition metal in the catalyst complex.
(§7) Activators of the present disclosure can also be used for activating non-metallocene catalysts for polymerization of olefins. Table 4 illustrates copolymerization of ethylene and octene using activators of the present disclosure and non-metallocene catalysts (CAT-1, CAT-2, CAT-3, and CAT-4).

[2] = Ethylene-octene copolymerization in parallel pressure reactor, non-metallocene catalyst CAT-4; details: catalyst CAT-4 20 nmol; activator 1.1 equiv; 100° C.; 135 psi; 1-octene 100 uL; TNOAL 0.5 umol
Description: as §1, §2, §3, §4, §5, §6, §7

[3] = Propylene homopolymerization in parallel pressure reactor, MCN-1 with ammonium borate activators; details: for activity: isohexane; for average catalyst activity, comparison of the four activators (FIG. 6): MCN-1, polypropylene at 100° C., Table 7 runs
[4] = Ethylene-octene copolymerization in parallel pressure reactor, non-metallocene catalyst CAT-2; details: catalyst CAT-2 20 nmol; activator 1.1 equiv; 100° C.; 135 psi; 1-octene 100 uL; TNOAL 0.5 umol
Description: as §1, §2, §3, §4, §5, §6, §7

[5] = Ethylene-octene copolymerization in parallel pressure reactor, non-metallocene catalyst CAT-1; details: catalyst CAT-1 20 nmol; activator 1.1 equiv; 100° C.; 135 psi; 1-octene 100 uL; TNOAL 0.5 umol
Description: as §1, §2, §3, §4, §5, §6, §7

[6] = Activator Equiv 1.0, TNOAL 0.25 umol, MCN-1 30 nmol, 85° C., propylene 135 psi
[7] = Activator Equiv 1.0, TNOAL 0.50 umol, MCN-1 30 nmol, 85° C., propylene 135 psi
[8] = Activator Equiv 1.0, TNOAL 0.75 umol, MCN-1 30 nmol, 85° C., propylene 135 psi
[9] = Activator Equiv 1.2, TNOAL 0.25 umol, MCN-1 30 nmol, 85° C., propylene 135 psi
[10] = Activator Equiv 1.2, TNOAL 0.50 umol, MCN-1 30 nmol, 85° C., propylene 135 psi
[11] = Activator Equiv 1.2, TNOAL 0.75 umol, MCN-1 30 nmol, 85° C., propylene 135 psi
[12] = Activator Equiv 1.4, TNOAL 0.25 umol, MCN-1 30 nmol, 85° C., propylene 135 psi
[13] = Activator Equiv 1.4, TNOAL 0.50 umol, MCN-1 30 nmol, 85° C., propylene 135 psi
[14] = Activator Equiv 1.4, TNOAL 0.75 umol, MCN-1 30 nmol, 85° C., propylene 135 psi
[15] = Activator Equiv 1.6, TNOAL 0.25 umol, MCN-1 30 nmol, 85° C., propylene 135 psi
[16] = Activator Equiv 1.6, TNOAL 0.50 umol, MCN-1 30 nmol, 85° C., propylene 135 psi
[17] = Activator Equiv 1.6, TNOAL 0.75 umol, MCN-1 30 nmol, 85° C., propylene 135 psi
[18] = propylene 150 psi, 100° C., MCN-1 = 30 nmol, activator = 33 nmol, TNOAL 500 nmol

Compound | activity [1] | activity [2] | activity [3, 6] | activity [3, 7] | activity [3, 8] | activity [3, 9] | activity [3, 10] | activity [3, 11] | activity [3, 12] | activity [3, 13] | activity [3, 14] | activity [3, 15] | activity [3, 16] | activity [3, 17] | average catalyst activity, comparison of the four activators (FIG. 6) [3] | activity [3, 18] | activity ([3]; propylene, 85 °C, 135 psi, MCN-1 = 20 nmol, activator = 20 nmol, TNOAL 500 nmol) | activity [4] | activity [5]
N,N-dimethylanilinium tetrakis(heptafluoronaphthalen-2-yl)borate [DMAH-BF28, reference compound] | 808 kg/mmol/h and 691 kg/mmol/h | 59 kg/mmol/h and 54 kg/mmol/h | 604 kg/mmol/h and 502 kg/mmol/h | 394 kg/mmol/h and 352 kg/mmol/h | 233 kg/mmol/h and 212 kg/mmol/h | 703 kg/mmol/h and 673 kg/mmol/h | 506 kg/mmol/h and 459 kg/mmol/h | 332 kg/mmol/h and 256 kg/mmol/h | 709 kg/mmol/h and 677 kg/mmol/h | 554 kg/mmol/h and 431 kg/mmol/h | 370 kg/mmol/h and 334 kg/mmol/h | 803 kg/mmol/h | 511 kg/mmol/h and 467 kg/mmol/h | 404 kg/mmol/h and 356 kg/mmol/h | highest average activities | 175 kg/mmol/h and 231 kg/mmol/h and 160 kg/mmol/h and 121 kg/mmol/h and 211 kg/mmol/h and 188 kg/mmol/h and 190 kg/mmol/h | 138 kg/mmol/h | 1161 kg/mmol/h and 724 kg/mmol/h | 3494 kg/mmol/h and 3144 kg/mmol/h
CCCCCCCCCCCCCCCCCC[NH+](CCCCCCCCCCCCCCCCCC)c1ccc(C)cc1.Fc1c(F)c(F)c2c(F)c([B-](c3c(F)c(F)c4c(F)c(F)c(F)c(F)c4c3F)(c3c(F)c(F)c4c(F)c(F)c(F)c(F)c4c3F)c3c(F)c(F)c4c(F)c(F)c(F)c(F)c4c3F)c(F)c(F)c2c1F [DOdTH-BF28, 4-methyl-N,N-dioctadecylbenzenaminium-BF28] | 838 kg/mmol/h and 829 kg/mmol/h | 48 kg/mmol/h and 46 kg/mmol/h | 271 kg/mmol/h and 259 kg/mmol/h and 246 kg/mmol/h | 212 kg/mmol/h and 194 kg/mmol/h and 175 kg/mmol/h | 138 kg/mmol/h and 132 kg/mmol/h and 120 kg/mmol/h | 354 kg/mmol/h and 295 kg/mmol/h and 281 kg/mmol/h | 242 kg/mmol/h and 211 kg/mmol/h and 191 kg/mmol/h | 168 kg/mmol/h and 142 kg/mmol/h and 134 kg/mmol/h | 315 kg/mmol/h and 284 kg/mmol/h and 261 kg/mmol/h | 225 kg/mmol/h and 186 kg/mmol/h and 180 kg/mmol/h | 173 kg/mmol/h and 153 kg/mmol/h and 144 kg/mmol/h | 283 kg/mmol/h and 267 kg/mmol/h | 265 kg/mmol/h and 196 kg/mmol/h and 188 kg/mmol/h | 174 kg/mmol/h and 150 kg/mmol/h and 134 kg/mmol/h | somewhat lower activity | 138 kg/mmol/h and 153 kg/mmol/h and 101 kg/mmol/h | – | 1034 kg/mmol/h and 533 kg/mmol/h | 3873 kg/mmol/h and 3497 kg/mmol/h
